These results are taken from patent US20140194529A1, “USAGE OF NATURAL COMPOUND FOR TREATING INFLAMMATION AND CANCER” (Hong Kong Baptist University, priority 2013, published 2014).

Where two headings read alike, the source gives them in different places.

Usually IC50 stands for the midpoint of a concentration-inhibition curve.

Format in all cases: cell-based
For series [1], the system named is iNOS-induced NO generation in RAW 264.7 cells. Kind of series: NO accumulation in LPS/IFN-γ stimulated RAW 264.7 cells (Griess reaction). The note with it: 24 hours. Here is the method:
RAW264.7 were maintained in RPMI 1640 medium supplemented with 10% FBS at 37° C. in a humidified 5% CO2 atmosphere. Cells were plated in a 96-well plate (5×10^3 cells/well) and allowed to attach overnight. The cells were then stimulated with 10 U/ml of IFN-γ and 100 ng/ml of LPS for 24 hours in the presence or absence of GE with final concentration of 50, 25, 12.5, 6.25, 3.125 μg/mL, and Indometacin as positive drug.
RAW264.7 were maintained in RPMI 1640 medium supplemented with 10% FBS at 37° C. in a humidified 5% CO2 atmosphere. Cells were plated in a 96-well plate (5×10^3 cells/well) and allowed to attach overnight. For stimulation, the medium was replaced with fresh FBS-free RPMI 1640 for 10 hours, and the cells were then stimulated with 10 U/ml of IFN-γ and 100 ng/ml of LPS for 24 hours in the presence or absence of extractions or fractions.
iNOS function was analyzed with Griess reaction by assay of nitrite concentration in the culture supernatant. Briefly, 100 μl/well of sample was incubated with equal volume of Griess solution (1% sulfanilamide in 5% phosphoric acid+1% α-naphthylamine in distilled water) at room temperature for 10 minutes. The absorbance was evaluated at 540 nm using a calibration curve with a sodium nitrite standard. Percent inhibition was expressed as [1−(NO level of sample/NO level of vehicle treated−control)]×100.
On the technique in general: Griess reagent forms a coloured azo dye with nitrite.

In series [2] the test system is HepG2. The experiment in a line: Cell cytotoxicity, MTT method. The note with it: HepG2, 72 hours, read-out: The cell cytotoxicity effect, IC50. Here is the method:
(§1) RAW 264.7 cells were obtained from the American Tissue Culture Collection (ATCC). Liver cancer line SMMC-7721 and HepG2, breast cancer lines including MCF-7 and MDA-MB-231 were purchased from cell-bank of Chinese Academy of Sciences, China. These cells were maintained in complete RPMI 1640 medium supplemented with 10% FBS at 37° C. in a humidified 5% CO2 atmosphere.
(§2) SMMC-7721 and HepG2, MCF-7 and MDA-MB-231 were seeded into 96-well plates (3×10^3 cells/well) and allowed to attach overnight. GE were added in final concentration of 50, 25, 12.5, 6.25, 3.125 μg/mL and continually cultured for 72 hours. Taxol as positive drug. Each well was incubated with 20 μl MTT (5 mg/ml in phosphate-buffered saline) for 4 hours at 37° C. Volume of 150 μl DMSO was added after the medium in well discarded and reacted for 10 minutes. Absorbance was measured at 490 nm. The optical density of formazan formed in control (untreated) cells was taken as 100% of viability. Mean value of each concentration (n=3 wells) was obtained.
A general note: Tetrazolium assays rely on reduction of a dye to a coloured formazan, in cell work by metabolically active cells.

Series [3] relates to MCF-7. The experiment in a line: Cell cytotoxicity, MTT method. The note with it: read-out: The cell cytotoxicity effect, IC50. How it is done:
as §1, §2

Series [4] deals with MDA-MB-231. The experiment in a line: Cell cytotoxicity, MTT method. The note with it: MDA-MB-231, 72 hours. How it is done: as §1, §2
Series [5] has as its system SMMC-7721. The experiment in a line: Cell cytotoxicity, MTT method. The note with it: SMMC-7721, 72 hours, read-out: The cell cytotoxicity effect, IC50. Here is the method: as §1, §2
The subject of series [6] is breast cancer lines and liver cancer lines. The experiment in a line: Cell cytotoxicity, MTT method (summary in conclusion). Here is the method: as §1, §2

On to Garcimultiflorone E [GE], for which the “The inhibitory effect on NO accumulation, IC50” value in series [1] (RAW 264.7, 10 U/ml IFN-γ + 100 ng/ml LPS) came out at 3.57 µg/mL. Besides, the IC50 came out at 5.78 µM in series [1] (RAW 264.7, 10 U/ml IFN-γ + 100 ng/ml LPS, read-out: The inhibitory effect on NO accumulation, IC50); 13.2 µM in series [2]; 9.63 µM in series [3] (MCF-7, 72 hours); 11.9 µM in series [5]. The “Effect on proliferation (in words)” value in series [4] is given as “no effect”. The “Concentration at which proliferation is inhibited” value in series [6] is “about 10 μM”.
`COc1ccc2c(c1)c(CC(=O)O)c(C)n2C(=O)c1ccc(Cl)cc1` [Indometacin, reference compound]: the inhibition at 1 µg/mL in series [1] (Mus musculus, RAW264.7, 1 μg/mL, RAW 264.7, IFN-γ + LPS, read-out: The inhibitory effect on NO accumulation) was found to be 46.5%.
`CC(=O)O[C@H]1C(=O)[C@@]2(C)[C@H]([C@H](OC(=O)c3ccccc3)[C@]3(O)C[C@H](OC(=O)[C@H](O)[C@@H](NC(=O)c4ccccc4)c4ccccc4)C(C)=C1C3(C)C)[C@]1(OC(C)=O)CO[C@@H]1C[C@@H]2O` [Taxol, reference compound]: the IC50 in series [2] (Homo sapiens) came to 0.00044 µM; in series [3] (Homo sapiens, MCF7, MCF-7, 72 hours), 0.003 µM; in series [4] (Homo sapiens, read-out: The cell cytotoxicity effect, IC50), 5 µM; in series [5] (Homo sapiens) it was 0.15 µM.
